Results from paper PMC6058667 (Drug Delivery, 2018).

Key:
HepG-2 cells = test: MTT cytotoxicity assay; format: cell-based; conditions: HepG-2 hepatoma cell line, 48 h
Procedure: The in vitro cytotoxicity of CuB-MMs-CPs was assessed using the MTT assay. HepG-2 cells were seeded onto 96-well plates in 200 μL. DMEM was applied to obtain a concentration of 5000 cells per well and cultured at 37 °C, 5% CO2 for 24 h to allow attachment of cells. […] The percentage of cell viability was calculated on the basis of the optical density values at 490 nm of the sample wells, which contained cells treated with the culture medium.

HepG-2 xenografts = test: Antitumor study in nude mice bearing HepG-2 xenografts; format: in vivo; conditions: oral, equivalent CuB dose 2 mg/kg, versus saline
Procedure: For in vivo study, we used a nude mouse as a model for HepG-2 […]. […] All treatments were orally administered on days 1, 3, 5, 7, 9, 11, 13, 15, 17, 19, and 21. The volume of the tumor was measured daily. On day 22, mice were killed and tumors were weighed.

Substance: Cucurbitacin B [CuB]
- IC50 (HepG-2 cells): 104 ± 50.3 nM
- Tumor growth (HepG-2 xenografts): slightly slower growth than animals administered with saline
